What was measured:
[1] = Chemical stability of the compound; format: physicochemical
[2] = biological target: T1, HTH-type transcriptional regulator ExsA (Pseudomonas aeruginosa (strain ATCC 15692 / PAO1 / 1C / PRS 101 / LMG12228), UniProt P26993); experiment: Inhibition of Pseudomonas aeruginosa PAO1 ExsA DNA binding activity
T1 sequence (P26993 whole entry): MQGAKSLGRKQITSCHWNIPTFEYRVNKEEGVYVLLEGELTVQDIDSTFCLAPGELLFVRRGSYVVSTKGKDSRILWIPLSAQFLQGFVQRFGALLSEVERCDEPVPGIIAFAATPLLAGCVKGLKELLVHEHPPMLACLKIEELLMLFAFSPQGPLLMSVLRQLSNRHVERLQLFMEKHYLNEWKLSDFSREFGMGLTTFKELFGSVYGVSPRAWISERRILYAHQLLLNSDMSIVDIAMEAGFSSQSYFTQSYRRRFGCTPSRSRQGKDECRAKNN

J774.A1 = experiment: Cytoprotective activity against Pseudomonas aeruginosa-induced cytotoxicity in mouse J774A1 cells assessed as LDH release at 100 uM; format: functional
[3] = biological target: T1, HTH-type transcriptional regulator ExsA; experiment: Inhibition of Pseudomonas aeruginosa 388 ExsA DNA binding activity
Liver microsomes = experiment: Metabolic stability in human liver microsome; format: ADME

SMILES: CC(=O)c1ccc(/C=C/C(=O)N(CC(=O)O)c2ccc(-c3nc4ccc(C#N)cc4n3O)cc2)cc1
- Stability [1]: Stable
- IC50 [2]: > 51 µM

SMILES: CC(=O)c1ccc(/C=C/C(=O)Nc2ccc(-c3nc4ccc(C#N)cc4n3O)cc2)cc1
- Activity (J774.A1): 19.2%
- IC50 [3]: 13 µM
- Stability [1]: Stable
- Stability (Liver microsomes): Stable

SMILES: CN(C)c1ccc(/C=C/C(=O)Nc2ccc(-c3nc4ccc([N+](=O)[O-])cc4n3O)cc2)cn1
- Stability [1]: Stable
- IC50 [2]: > 100 µM

SMILES: CC(=O)c1ccc(/C=C/C(=O)Nc2ccc(-c3nc4c(CC(=O)O)cc([N+](=O)[O-])cc4n3O)cc2)cn1
- Activity (J774.A1): 33.1%
- Stability [1]: Stable
- IC50 [2]: 4.6 µM

SMILES: O=C(/C=C/c1ccc(F)cc1)Nc1ccc(-c2nc3ccc([N+](=O)[O-])cc3n2O)cc1
- Stability (Liver microsomes): Stable

SMILES: CC(=O)c1ccc(/C=C/C(=O)Nc2ccc(-c3nc4c(CC(=O)O)cc([N+](=O)[O-])cc4n3O)cc2)cc1
- Activity (J774.A1): 65.4%
- Stability [1]: Stable
- IC50 [2]: 3.7 µM

SMILES: CC(=O)c1ccc(/C=C/C(=O)Nc2ccc(-c3nc4ccc([N+](=O)[O-])cc4n3O)cc2)cn1
- Activity (J774.A1): 12.1%
- IC50 [3]: 7.5 µM
- Stability [1]: Stable

SMILES: CSc1ccc(/C=C/C(=O)Nc2ccc(-c3nc4ccc([N+](=O)[O-])cc4n3O)cc2)cn1
- Activity (J774.A1): 52.7%
- Stability [1]: Stable
- IC50 [2]: 6.9 µM

SMILES: CC(=O)c1ccc(/C=C/C(=O)Nc2ccc(-c3nc4ccc([N+](=O)[O-])cc4n3O)cc2)cc1
- Activity (J774.A1): 22.4%
- IC50 [3]: 3 µM
- Stability [1]: Stable
- Stability (Liver microsomes): Stable

SMILES: CSc1ccc(/C=C/C(=O)Nc2ccc(-c3nc4ccc([N+](=O)[O-])cc4n3O)cc2)cc1
- Activity (J774.A1): >100%
- Stability [1]: Stable
- IC50 [2]: 10.4 µM

SMILES: O=C(/C=C/c1ccc(C(F)(F)F)nc1)Nc1ccc(-c2nc3ccc([N+](=O)[O-])cc3n2O)cc1
- Activity (J774.A1): 78.5%
- Stability [1]: Stable
- IC50 [2]: 6.7 µM

SMILES: CC(=O)c1ccc(/C=C/C(=O)N(CC(N)=O)c2ccc(-c3nc4ccc([N+](=O)[O-])cc4n3O)cc2)cc1
- Stability [1]: Stable
- IC50 [2]: > 47.5 µM

SMILES: CSc1ccc(/C=C/C(=O)Nc2ccc(-c3nc4ccc(C#N)cc4n3O)cc2)cn1
- Activity (J774.A1): 46.6%
- Stability [1]: Stable
- IC50 [2]: 3.5 µM

SMILES: CSc1ccc(/C=C/C(=O)Nc2ccc(-c3nc4ccc(C#N)cc4n3O)cc2)cc1
- Activity (J774.A1): >100%
- Stability [1]: Stable
- IC50 [2]: 7.3 µM

SMILES: O=C(/C=C/c1ccc(-n2ccnc2)nc1)Nc1ccc(-c2nc3ccc([N+](=O)[O-])cc3n2O)cc1
- Stability [1]: Stable
- IC50 [2]: 31.2 µM

SMILES: O=C(/C=C/c1ccc(C(O)(O)C(F)(F)F)cc1)Nc1ccc(-c2nc3ccc([N+](=O)[O-])cc3n2O)cc1
- Stability [1]: Stable
- IC50 [2]: > 100 µM

SMILES: CC(=O)c1ccc(/C=C/C(=O)N(CC(N)=O)c2ccc(-c3nc4ccc(C#N)cc4n3O)cc2)cc1
- Stability [1]: Stable
- IC50 [2]: > 49 µM

Reference: ChEMBL document CHEMBL1155481, “N-Hydroxybenzimidazole inhibitors of ExsA MAR transcription factor in Pseudomonas aeruginosa: In vitro anti-virulence activity and metabolic stability” (Bioorg Med Chem Lett, 2010)
